Our source for the EC50 values is US7838553B2, “Benzopyran derivatives as potassium channel openers” (Janssen Pharmaceutica NV, priority 2005, dated 2010).

T1 sequence (O60706 1-1549 isoform O60706-2): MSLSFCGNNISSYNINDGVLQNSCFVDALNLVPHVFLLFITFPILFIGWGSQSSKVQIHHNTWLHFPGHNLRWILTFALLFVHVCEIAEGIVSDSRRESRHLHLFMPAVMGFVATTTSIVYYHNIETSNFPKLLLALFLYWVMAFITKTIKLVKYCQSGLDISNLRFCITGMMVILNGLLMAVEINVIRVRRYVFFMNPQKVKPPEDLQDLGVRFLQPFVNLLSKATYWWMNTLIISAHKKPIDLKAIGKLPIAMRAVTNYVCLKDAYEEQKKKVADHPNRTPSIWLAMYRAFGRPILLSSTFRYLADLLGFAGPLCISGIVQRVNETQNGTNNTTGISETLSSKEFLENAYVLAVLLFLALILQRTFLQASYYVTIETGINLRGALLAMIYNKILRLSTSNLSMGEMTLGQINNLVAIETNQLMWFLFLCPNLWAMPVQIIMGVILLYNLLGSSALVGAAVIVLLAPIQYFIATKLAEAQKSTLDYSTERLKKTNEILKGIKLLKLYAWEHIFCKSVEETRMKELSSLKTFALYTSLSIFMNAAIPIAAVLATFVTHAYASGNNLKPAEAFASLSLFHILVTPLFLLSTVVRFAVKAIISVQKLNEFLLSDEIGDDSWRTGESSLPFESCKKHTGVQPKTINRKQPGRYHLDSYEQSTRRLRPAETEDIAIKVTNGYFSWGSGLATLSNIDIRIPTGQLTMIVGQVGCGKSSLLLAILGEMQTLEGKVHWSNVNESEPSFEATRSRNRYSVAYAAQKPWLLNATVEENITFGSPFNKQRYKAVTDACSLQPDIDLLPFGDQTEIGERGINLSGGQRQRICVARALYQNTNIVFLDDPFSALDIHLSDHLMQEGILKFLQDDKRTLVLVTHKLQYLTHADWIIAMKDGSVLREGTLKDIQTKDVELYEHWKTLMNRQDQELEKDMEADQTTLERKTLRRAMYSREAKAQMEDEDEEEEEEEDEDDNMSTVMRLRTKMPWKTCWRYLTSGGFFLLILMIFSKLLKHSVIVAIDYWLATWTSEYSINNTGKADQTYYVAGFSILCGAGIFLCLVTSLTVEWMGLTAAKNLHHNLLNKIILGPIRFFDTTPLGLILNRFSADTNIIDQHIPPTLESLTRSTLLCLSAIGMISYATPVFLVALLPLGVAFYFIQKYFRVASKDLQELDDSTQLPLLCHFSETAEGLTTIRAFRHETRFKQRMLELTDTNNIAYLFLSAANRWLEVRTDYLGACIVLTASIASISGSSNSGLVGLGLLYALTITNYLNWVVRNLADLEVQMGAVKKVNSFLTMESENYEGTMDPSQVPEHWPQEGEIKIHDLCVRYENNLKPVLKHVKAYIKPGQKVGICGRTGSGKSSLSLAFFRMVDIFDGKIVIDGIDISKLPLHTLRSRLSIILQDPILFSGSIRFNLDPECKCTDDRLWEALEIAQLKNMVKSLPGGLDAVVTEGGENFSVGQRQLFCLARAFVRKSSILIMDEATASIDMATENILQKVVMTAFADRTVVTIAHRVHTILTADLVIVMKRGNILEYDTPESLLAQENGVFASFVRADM
T1 sequence (Q14654 whole entry): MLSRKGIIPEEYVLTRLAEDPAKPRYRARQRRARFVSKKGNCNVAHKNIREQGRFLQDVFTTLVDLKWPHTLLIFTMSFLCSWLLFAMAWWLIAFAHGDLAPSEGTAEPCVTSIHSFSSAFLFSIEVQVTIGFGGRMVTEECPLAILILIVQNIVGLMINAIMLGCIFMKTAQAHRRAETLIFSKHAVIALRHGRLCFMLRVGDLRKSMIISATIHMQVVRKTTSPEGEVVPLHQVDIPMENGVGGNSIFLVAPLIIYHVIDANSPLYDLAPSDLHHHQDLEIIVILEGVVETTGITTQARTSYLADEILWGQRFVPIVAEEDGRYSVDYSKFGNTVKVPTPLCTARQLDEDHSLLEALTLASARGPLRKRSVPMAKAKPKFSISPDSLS

This assay has as its target T1, KATP channels (Homo sapiens, UniProt O60706+Q14654).
T1 construct: TE671 human medulloblastoma cells were obtained from ATCC; host or cells: TE671 human medulloblastoma cells
Description: Potassium Channel Assay (FLIPR membrane potential). The note with it: TE671 human medulloblastoma cells, Membrane Potential Assay Dye, room temperature, hyperpolarization from KATP channel opening. The assay is classed as cell-based. The procedure:
TE671 human medulloblastoma cells were obtained from ATCC and grown in Dulbecco's modified Eagle's medium (DMEM) supplemented with 10% fetal bovine serum, 100 U/ml penicillin and […].
The day before testing, the cells were plated in black 96-well plates at 50 K/well. On the day of testing, the growth media was removed, then 100 μl of FLIPR buffer (20 mM HEPES, 120 mM NaCl, 2 mM KCl, 2 mM CaCl2, 1 mM MgCl2, 5 mM Glucose) and 100 μl of Membrane Potential Assay Dye (Molecular Devices) dissolved in FLIPR buffer were added to each well. The cells were incubated at room temperature for 15 to 30 min.
The effect of test compounds on KATP channels were evaluated on a fluorometric imaging plate reader (FLIPR, Molecular Devices) at room temperature. After a baseline period, 50 μl of 5× stock solution of test compound prepared in FLIPR buffer was added and fluorescent change was monitored for 3 minutes. After this reading, glyburide, a KATP channel blocker, was added to a final concentration of 5 μM to check the specificity of the test compound as a KATP channel openers. Hyperpolarization resulting from KATP channel opening was observed as a decrease in fluorescent intensity.
Representative compounds of the present invention were tested according to the procedure described above, with results as listed in Table 7, below.
What is called EC50 is the concentration at which the effect is half-maximal. High values mean a less potent agent, low ones a more potent agent. With `CC1(C)Oc2ccc(S(=O)(=O)c3ccccc3)cc2[C@@H](Oc2noc3ccc(Cl)cc23)[C@@H]1O` [Compound 75, (3S,4R)-6-Benzenesulfonyl-4R-(5-chloro-benzo[d]isoxazol-3-yloxy)-2,2-dimethyl-chroman-3S-ol], the EC50 was > 30 µM. For `CC1(C)Oc2ccncc2[C@@H](n2c(=O)ccn2-c2ccc(Cl)cc2)[C@@H]1O` (racemic) [Compound 110, 1-(4-Chloro-phenyl)-2-(3-hydroxy-2,2-dimethyl-3,4-dihydro-2H-pyrano[32-c]pyridin-4-yl)-1,2-dihydro-pyrazol-3-one], the EC50 is > 30 µM.

With `CC1(C)Oc2ccc(C#N)cc2[C@@H](Sc2ncc[nH]2)[C@@H]1O` [Compound 25, (3S,4R)-3-Hydroxy-4-(2H-imidazol-2-ylsulfanyl)-2,2-dimethyl-chroman-6-carbonitrile], the EC50 was 0.84 µM.
